Experimental data as given in PubChem BioAssay AID328 (DTP/NCI, 2004).
Several values for one entry are separate records, joined by “and”; a condition that tells them apart may be missing. Equal values may be shown once. Toxic doses and inconclusive results are not listed. Rule for the calls: active = survival T/C of 150% or more; inactive = T/C below 125% in these data.

Tested on: BDF1 mice, P388 leukemia ip, median survival T/C
Experiment: NCI In Vivo Anticancer Drug Screen. Data for tumor model P388 Leukemia (intraperitoneal) in B6D2F1 (BDF1) mice
Settings: endpoint: median survival time, higher = longer survival
Outline: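 Compound-treated tumour-bearing mice were compared with vehicle-treated controls. Survival was recorded, and the value is the treated-group measurement divided by the control-group measurement (T/C).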

[1] = dose: 50.0 mg/kg/injection, schedule: Q01DX009 (ip), vehicle: saline
[2] = dose: 100.0 mg/kg/injection, schedule: Q01DX009 (ip), vehicle: saline
[3] = dose: 50.0 mg/kg/injection, schedule: Q04DX003 (ip), vehicle: saline
[4] = dose: 100.0 mg/kg/injection, schedule: Q04DX003 (ip), vehicle: saline
[5] = dose: 200.0 mg/kg/injection, schedule: Q04DX003 (ip), vehicle: saline
[6] = dose: 100.0 mg/kg/injection, schedule: Q01DX009 (ip), vehicle: Klucel (hydroxypropylcellulose) (HPC)
[7] = dose: 100.0 mg/kg/injection, schedule: Q04DX003 (ip), vehicle: saline with Tween-80
[8] = dose: 200.0 mg/kg/injection, schedule: Q04DX003 (ip), vehicle: saline with Tween-80
[9] = dose: 50.0 mg/kg/injection, schedule: Q01DX009 (ip), vehicle: saline with Tween-80
[10] = dose: 100.0 mg/kg/injection, schedule: Q01DX009 (ip), vehicle: saline with Tween-80
[11] = dose: 200.0 mg/kg/injection, schedule: Q01DX009 (ip), vehicle: saline with Tween-80

Measured: T/C

C[N+](C)(C)CN1C(=O)c2ccccc2C1=O
inactive: [1] 87 % of control | [2] 100 % of control

COC1C(OC(=O)/C=C/C=C/C=C/C=C\C(=O)O)CCC2(CO2)C1C1(C)OC1CC=C(C)C (stereo unspecified)
inactive: [3] 110 % of control | [4] 105 % of control | [5] 110 % of control

CCOC(=O)/C(C)=C\c1c(C)[nH]c(=O)[nH]c1=O
inactive: [1] 102 % of control | [3] 104 % of control | [2] 103 % of control | [4] 100 % of control | dose: 200.0 mg/kg/injection, schedule: Q01DX009 (ip), vehicle: saline 99 % of control | [5] 95 % of control and 100 % of control | dose: 400.0 mg/kg/injection, schedule: Q01DX009 (ip), vehicle: saline 96 % of control | dose: 400.0 mg/kg/injection, schedule: Q04DX003 (ip), vehicle: saline 91 % of control and 95 % of control

NC(=O)c1[nH]nc(C2OC(CO)C(O)C2O)c1O (stereo unspecified)
inactive: dose: 0.25 mg/kg/injection, schedule: Q01DX009 (ip), vehicle: saline 116 % of control | dose: 0.5 mg/kg/injection, schedule: Q04DX003 (ip), vehicle: saline 99 % of control and 100 % of control and 104 % of control | dose: 0.62 mg/kg/injection, schedule: Q01DX009 (ip), vehicle: saline 100 % of control | dose: 0.63 mg/kg/injection, schedule: Q01DX009 (ip), vehicle: saline 113 % of control | dose: 1.0 mg/kg/injection, schedule: Q01DX009 (ip), vehicle: saline 120 % of control | dose: 1.0 mg/kg/injection, schedule: Q04DX003 (ip), vehicle: saline 103 % of control and 109 % of control | dose: 1.25 mg/kg/injection, schedule: Q01DX009 (ip), vehicle: saline 100 % of control | dose: 2.0 mg/kg/injection, schedule: Q04DX003 (ip), vehicle: saline 106 % of control and 108 % of control (2×) | dose: 4.0 mg/kg/injection, schedule: Q04DX003 (ip), vehicle: saline 99 % of control and 115 % of control | dose: 5.0 mg/kg/injection, schedule: Q04DX003 (ip), vehicle: saline 118 % of control | dose: 8.0 mg/kg/injection, schedule: Q04DX003 (ip), vehicle: saline 100 % of control and 112 % of control and 123 % of control | dose: 10.0 mg/kg/injection, schedule: Q04DX003 (ip), vehicle: saline 107 % of control | dose: 16.0 mg/kg/injection, schedule: Q04DX003 (ip), vehicle: saline 123 % of control | dose: 20.0 mg/kg/injection, schedule: Q04DX003 (ip), vehicle: saline 118 % of control

CC(=O)O[C@]1(C(C)=O)CC[C@H]2[C@@H]3C[C@H](C)C4=CC(=O)CC[C@]4(C)[C@H]3CC[C@@]21C
inactive: dose: 50.0 mg/kg/injection, schedule: Q01DX009 (ip), vehicle: Klucel (hydroxypropylcellulose) (HPC) 103 % of control | [6] 111 % of control | dose: 100.0 mg/kg/injection, schedule: Q04DX003 (ip), vehicle: other 110 % of control | dose: 200.0 mg/kg/injection, schedule: Q01DX009 (ip), vehicle: Klucel (hydroxypropylcellulose) (HPC) 94 % of control and 95 % of control | dose: 200.0 mg/kg/injection, schedule: Q04DX003 (ip), vehicle: other 100 % of control | dose: 400.0 mg/kg/injection, schedule: Q01DX009 (ip), vehicle: Klucel (hydroxypropylcellulose) (HPC) 87 % of control | dose: 400.0 mg/kg/injection, schedule: Q04DX003 (ip), vehicle: other 115 % of control

Cc1csc(/N=C/c2ccc([N+](=O)[O-])o2)n1
inactive: dose: 50.0 mg/kg/injection, schedule: Q04DX003 (ip), vehicle: saline with Tween-80 109 % of control | [7] 118 % of control | [8] 113 % of control

O=c1[nH]cc(F)c(=O)[nH]1.[Tl]
inactive: dose: 6.25 mg/kg/injection, schedule: Q01DX009 (ip), vehicle: Klucel (hydroxypropylcellulose) (HPC) 117 % of control | dose: 12.5 mg/kg/injection, schedule: Q01DX009 (ip), vehicle: Klucel (hydroxypropylcellulose) (HPC) 102 % of control and 110 % of control | dose: 25.0 mg/kg/injection, schedule: Q01DX009 (ip), vehicle: Klucel (hydroxypropylcellulose) (HPC) 87 % of control | [6] 91 % of control

Cc1cc(=O)[nH]o1
inactive: [9] 108 % of control | [10] 103 % of control | [11] 103 % of control | dose: 400.0 mg/kg/injection, schedule: Q01DX009 (ip), vehicle: saline with Tween-80 113 % of control

Clc1cccc(N=c2cc3oc4ccccc4nc-3cc2Nc2cccc(Cl)c2)c1
inactive: dose: 12.5 mg/kg/injection, schedule: Q01DX009 (ip), vehicle: saline with Tween-80 96 % of control | dose: 25.0 mg/kg/injection, schedule: Q01DX009 (ip), vehicle: saline with Tween-80 99 % of control | [9] 93 % of control

CS(=O)c1ccccc1C(=O)O (stereo unspecified)
inactive: [7] 106 % of control | [8] 110 % of control | dose: 400.0 mg/kg/injection, schedule: Q04DX003 (ip), vehicle: saline with Tween-80 109 % of control

C=C1N(C)c2ccccc2C1(C)C
inactive: dose: 1.47 mg/kg/injection, schedule: Q01DX009 (ip), vehicle: saline with Tween-80 104 % of control | dose: 2.95 mg/kg/injection, schedule: Q01DX009 (ip), vehicle: saline with Tween-80 118 % of control | dose: 5.9 mg/kg/injection, schedule: Q01DX009 (ip), vehicle: saline with Tween-80 122 % of control

O=c1nc(Oc2ccccc2)nc2ccccn12
inactive: [9] 105 % of control | [10] 97 % of control | [11] 102 % of control

c1nnc(NCNc2nncs2)s1
inactive: dose: 12.0 mg/kg/injection, schedule: Q04DX003 (ip), vehicle: saline 100 % of control | dose: 19.0 mg/kg/injection, schedule: Q04DX003 (ip), vehicle: saline 118 % of control | [1] 100 % of control | dose: 50.0 mg/kg/injection, schedule: Q01DX010 (ip), vehicle: saline 90 % of control | [2] 100 % of control
active: dose: 12.5 mg/kg/injection, schedule: Q01DX010 (ip), vehicle: saline 204 % of control | dose: 25.0 mg/kg/injection, schedule: Q01DX010 (ip), vehicle: saline 227 % of control | dose: 29.0 mg/kg/injection, schedule: Q04DX003 (ip), vehicle: saline 186 % of control | dose: 45.0 mg/kg/injection, schedule: Q04DX003 (ip), vehicle: saline 177 % of control | [3] 190 % of control | dose: 66.0 mg/kg/injection, schedule: Q04DX003 (ip), vehicle: saline 150 % of control and 195 % of control | [4] 227 % of control and 235 % of control and 195 % of control | dose: 150.0 mg/kg/injection, schedule: Q04DX003 (ip), vehicle: saline 210 % of control and 213 % of control

c1cc[c]([Sn]([c]2ccccc2)([c]2ccccc2)[n]2cncn2)cc1
inactive: dose: 3.12 mg/kg/injection, schedule: Q01DX009 (ip), vehicle: saline with Tween-80 106 % of control | dose: 6.25 mg/kg/injection, schedule: Q01DX009 (ip), vehicle: saline with Tween-80 106 % of control

O=[N+]([O-])c1ccc(S(=O)(=O)Oc2ccccc2)cc1
inactive: [9] 105 % of control | dose: 50.0 mg/kg/injection, schedule: Q04DX003 (ip), vehicle: Klucel (hydroxypropylcellulose) (HPC) 100 % of control | [10] 100 % of control | dose: 100.0 mg/kg/injection, schedule: Q04DX003 (ip), vehicle: Klucel (hydroxypropylcellulose) (HPC) 105 % of control | [11] 105 % of control | dose: 200.0 mg/kg/injection, schedule: Q04DX003 (ip), vehicle: Klucel (hydroxypropylcellulose) (HPC) 105 % of control

COc1ccc2[nH]c3c(C)c4ccncc4c(C)c3c2c1
active: dose: 9.37 mg/kg/injection, schedule: Q04DX003 (ip), vehicle: water 176 % of control | dose: 18.5 mg/kg/injection, schedule: Q04DX003 (ip), vehicle: water 188 % of control | dose: 18.75 mg/kg/injection, schedule: Q01DX001 (ip), vehicle: water 176 % of control | dose: 37.5 mg/kg/injection, schedule: Q01DX001 (ip), vehicle: water 164 % of control | dose: 37.5 mg/kg/injection, schedule: Q04DX003 (ip), vehicle: other 158 % of control | dose: 75.0 mg/kg/injection, schedule: Q01DX001 (ip), vehicle: water 200 % of control
inactive: dose: 4.68 mg/kg/injection, schedule: Q01DX009 (ip), vehicle: water 117 % of control | dose: 9.37 mg/kg/injection, schedule: Q01DX009 (ip), vehicle: water 88 % of control | dose: 18.5 mg/kg/injection, schedule: Q01DX009 (ip), vehicle: other 87 % of control | dose: 18.75 mg/kg/injection, schedule: Q01DX001 (ip), vehicle: other 112 % of control | dose: 18.75 mg/kg/injection, schedule: Q01DX009 (ip), vehicle: water 94 % of control | dose: 37.5 mg/kg/injection, schedule: Q01DX001 (ip), vehicle: other 116 % of control | dose: 75.0 mg/kg/injection, schedule: Q04DX003 (ip), vehicle: other 95 % of control
